Data published in patent US10668040B2, “Treatment of urea cycle disorders in neonates and infants” (Horizon Therapeutics, LLC, priority 2017, dated 2020).

How the values were obtained:
UCD patients = assay: Example 3: BMI and BSA Z-scores up to Month 24; format: in vivo, human
Method: Baseline and Change from Baseline in Body Mass Index (BMI) Z-Score Up to Month 24
(§1) To assess any effect of study drug treatment on growth, Z-scores were calculated to express the deviation from a reference population for BMI. The Z-scores are based on the World Health Organization's Child Growth Standards charts. Negative Z-scores indicate lower than typical for age and gender while positive scores indicate higher than typical for age and gender. BMI measurements were taken on month 1, month 2, month 3, month 4, month 5, month 6, month 9, month 12, month 15, month 18, and month 24.
Baseline and Change from Baseline in Body Surface Area (BSA) Z-Score Up to Month 24
as §1, with “BSA.” for “BMI.”, “weight-for-length” for “the World Health Organization's Child Growth Standards”

[1] = Example 3: urinary PAGN concentrations (first full day and up to end of trial); format: in vivo, human
Method: Urinary PAGN Concentrations on the First Full Day of RAVICTI Dosing
PK Evaluable Population: all subjects from the safety population with individual concentration-time profiles that allow computation of meaningful PK parameter values. Measurements were taken at hour 0, between 0.5 and 1.5 hours, between 1.5 and 2.5 hours, between 4 and 6 hours, between 7.5 and 8.5 hours, and between 12 and 24 hours after the first dose of the day on day 1 for stable subjects and on day 2 for subjects in HAC.
Urinary PAGN Concentrations Up to End of Trial
PK Evaluable Population: all subjects from the safety population with individual concentration-time profiles that allow computation of meaningful PK parameter values. Measurements were taken at day 7, month 1, month 2, month 3, month 4, month 5, month 6, month 9, month 12, month 15, month 18, month 24, and at the end of the trial.

[2] = Age 2 months to <2 years, Month 1
[3] = Age 2 months to <2 years, Month 2
[4] = Age 2 months to <2 years, Month 3
[5] = Age 2 months to <2 years, Month 4
[6] = Age 2 months to <2 years, Month 5
[7] = Age 2 months to <2 years, Month 6
[8] = Age 2 months to <2 years, Month 9
[9] = Age 2 months to <2 years, Month 12
[10] = Age 2 months to <2 years, Month 15
[11] = Age 2 months to <2 years, Month 18
[12] = Age 2 months to <2 years, Month 24

O=C(CCCc1ccccc1)OCC(COC(=O)CCCc1ccccc1)OC(=O)CCCc1ccccc1 [RAVICTI, benzenebutanoic acid, 1′,1″-(1,2,3-propanetriyl) ester]
BMI Z-Score baseline (UCD patients; Age 0 to <2 Months): −0.0544 (±1.268);
BSA Z-Score baseline (UCD patients; Age 0 to <2 Months): −0.1980 (±2.118);
BMI Z-Score change from baseline (UCD patients; Age 0 to <2 months, Month 1): −0.2158 (±1.36);
BSA Z-Score change from baseline (UCD patients; Age 0 to <2 months, Month 1): 0.2336 (±1.956);
BMI Z-Score change from baseline (UCD patients; Age 0 to <2 months, Month 2): −0.2598 (±1.195);
BSA Z-Score change from baseline (UCD patients; Age 0 to <2 months, Month 2): 0.2006 (±1.721);
BMI Z-Score change from baseline (UCD patients; Age 0 to <2 months, Month 3): −0.1617 (±1.026);
BSA Z-Score change from baseline (UCD patients; Age 0 to <2 months, Month 3): 0.2684 (±1.375);
BMI Z-Score change from baseline (UCD patients; Age 0 to <2 months, Month 4): −0.0264 (±1.682);
BSA Z-Score change from baseline (UCD patients; Age 0 to <2 months, Month 4): 0.2372 (±2.308);
BMI Z-Score change from baseline (UCD patients; Age 0 to <2 months, Month 5): 0.0828 (±1.142);
BSA Z-Score change from baseline (UCD patients; Age 0 to <2 months, Month 5): 0.1810 (±1.7);
BMI Z-Score change from baseline (UCD patients; Age 0 to <2 months, Month 6): 0.0136 (±1.721);
BSA Z-Score change from baseline (UCD patients; Age 0 to <2 months, Month 6): 0.2902 (±2.06);
BMI Z-Score change from baseline (UCD patients; Age 0 to <2 months, Month 9): 0.4614 (±1.253);
BSA Z-Score change from baseline (UCD patients; Age 0 to <2 months, Month 9): 0.1679 (±1.324);
BMI Z-Score change from baseline (UCD patients; Age 0 to <2 months, Month 12): 0.6646 (±0.9533);
BSA Z-Score change from baseline (UCD patients; Age 0 to <2 months, Month 12): 0.1308 (±0.5037);
BMI Z-Score change from baseline (UCD patients; Age 0 to <2 months, Month 15): 0.6830 (±0.557);
BSA Z-Score change from baseline (UCD patients; Age 0 to <2 months, Month 15): 0.1595 (±0.7583);
BMI Z-Score change from baseline (UCD patients; Age 0 to <2 months, Month 18): 0.3308 (±0.2757);
BSA Z-Score change from baseline (UCD patients; Age 0 to <2 months, Month 18): 0.1050 (±0.7352);
BMI Z-Score change from baseline (UCD patients; Age 0 to <2 months, Month 24): 0.7743 (±0.6496);
BSA Z-Score change from baseline (UCD patients; Age 0 to <2 months, Month 24): 0.7341 (±1.356);
BMI Z-Score baseline (UCD patients; Age 2 Months to <2 Years): 0.8107 (±2.17);
BSA Z-Score baseline (UCD patients; Age 2 Months to <2 Years): 0.7143 (±2.149);
BMI Z-Score change from baseline (UCD patients; [2]): −0.2385 (±0.7783);
BSA Z-Score change from baseline (UCD patients; [2]): −0.2105 (±0.7413);
BMI Z-Score change from baseline (UCD patients; [3]): −0.0249 (±0.7486);
BSA Z-Score change from baseline (UCD patients; [3]): −0.0704 (±0.7039);
BMI Z-Score change from baseline (UCD patients; [4]): 0.1815 (±0.8606);
BSA Z-Score change from baseline (UCD patients; [4]): 0.1065 (±0.7016);
BMI Z-Score change from baseline (UCD patients; [5]): 0.4434 (±0.9485);
BSA Z-Score change from baseline (UCD patients; [5]): 0.3365 (±0.7767);
BMI Z-Score change from baseline (UCD patients; [6]): 0.1484 (±0.7629);
BSA Z-Score change from baseline (UCD patients; [6]): 0.1043 (±0.5675);
BMI Z-Score change from baseline (UCD patients; [7]): 0.2497 (±0.8092);
BSA Z-Score change from baseline (UCD patients; [7]): 0.1842 (±0.622);
BMI Z-Score change from baseline (UCD patients; [8]): 0.6407 (±0.9869);
BSA Z-Score change from baseline (UCD patients; [8]): 0.4875 (±0.8614);
BMI Z-Score change from baseline (UCD patients; [9]): 0.4164 (±0.8067);
BSA Z-Score change from baseline (UCD patients; [9]): 0.2944 (±0.7513);
BMI Z-Score change from baseline (UCD patients; [10]): −0.2997 (±0.1696);
BSA Z-Score change from baseline (UCD patients; [10]): −0.3661 (±0.00932);
BMI Z-Score change from baseline (UCD patients; [11]): −0.2038 (±00000);
BSA Z-Score change from baseline (UCD patients; [11]): −0.2214 (±00000);
BMI Z-Score change from baseline (UCD patients; [12]): 0.5581 (±1.24);
BSA Z-Score change from baseline (UCD patients; [12]): 0.4310 (±1.131);
Urinary PAGN concentration ([1]; Age 0 to <2 months, Day 7): 4643 (±2506); μg/mL
Urinary PAGN concentration ([1]; Age 0 to <2 months, End of trial): 6939 (±6581); μg/mL
Urinary PAGN concentration ([1]; Age 0 to <2 months, Month 1): 4517 (±2485), μg/mL
Urinary PAGN concentration ([1]; Age 0 to <2 months, Month 2): 4116 (±3137); μg/mL
Urinary PAGN concentration ([1]; Age 0 to <2 months, Month 3): 7037 (±4493); μg/mL
Urinary PAGN concentration ([1]; Age 0 to <2 months, Month 4): 2826 (±1543); μg/mL
Urinary PAGN concentration ([1]; Age 0 to <2 months, Month 5): 6973 (±3682); μg/mL
Urinary PAGN concentration ([1]; Age 0 to <2 months, Month 6): 5883 (±3128); μg/mL
Urinary PAGN concentration ([1]; Age 0 to <2 months, Month 9): 7006 (±4289); μg/mL
Urinary PAGN concentration ([1]; Age 0 to <2 months, Month 12): 5847 (±2992); μg/mL
Urinary PAGN concentration ([1]; Age 0 to <2 months, Month 15): 3915 (±2584); μg/mL
Urinary PAGN concentration ([1]; Age 0 to <2 months, first full day, 0.5 to 1.5 hours): 1828 (±2862); μg/mL
Urinary PAGN concentration ([1]; Age 0 to <2 months, first full day, 1.5 to 2.5 hours): 1746 (±1464); μg/mL
Urinary PAGN concentration ([1]; Age 0 to <2 months, first full day, 4 to 6 hours): 2260 (±1472); μg/mL
Urinary PAGN concentration ([1]; Age 0 to <2 months, first full day, 7.5 to 8.5 hours): 3530.43 (±3600.4), μg/mL
Urinary PAGN concentration ([1]; Age 0 to <2 months, first full day, 12 to 24 hours): 4404 (±3766); μg/mL
Urinary PAGN concentration ([1]; Age 0 to <2 months, first full day, Hour 0): 3530.43 (±3600.4); μg/mL
Urinary PAGN concentration ([1]; Age 2 months to <2 years, Day 7): 8859 (±10500); μg/mL
Urinary PAGN concentration ([1]; Age 2 months to <2 years, End of trial): 25333 (±21324); μg/mL
Urinary PAGN concentration [1, 2]: 6274 (±4802); μg/mL
Urinary PAGN concentration [1, 3]: 7386 (±6419); μg/mL
Urinary PAGN concentration [1, 4]: 11456 (±14471); μg/mL
Urinary PAGN concentration [1, 5]: 21416 (±33695); μg/mL
Urinary PAGN concentration [1, 6]: 6129 (±8024); μg/mL
Urinary PAGN concentration [1, 7]: 5347 (±3153); μg/mL
Urinary PAGN concentration [1, 8]: 9357 (±7286); μg/mL
Urinary PAGN concentration [1, 9]: 2580 (±286); μg/mL
Urinary PAGN concentration [1, 10]: 6400 (±00000); μg/mL
Urinary PAGN concentration [1, 11]: 5250 (±00000); μg/mL
Urinary PAGN concentration ([1]; Age 2 months to <2 years, first full day, 0.5 to 1.5 hours): 4140 (±4399); μg/mL
Urinary PAGN concentration ([1]; Age 2 months to <2 years, first full day, 1.5 to 2.5 hours): 3145 (±5045); μg/mL
Urinary PAGN concentration ([1]; Age 2 months to <2 years, first full day, 4 to 6 hours): 5202 (±4547); μg/mL
Urinary PAGN concentration ([1]; Age 2 months to <2 years, first full day, 7.5 to 8.5 hours): 3950 (±3068); μg/mL
Urinary PAGN concentration ([1]; Age 2 months to <2 years, first full day, 12 to 24 hours): 7561 (±6956); μg/mL
Urinary PAGN concentration ([1]; Age 2 months to <2 years, first full day, Hour 0): 3273 (±1993); μg/mL
